Experimental data taken from article PMC9095466 (Nature, 2022).
Where “and” joins values, the source holds several entries; their conditions need not be identical. Identical values can stand only once. Like-named read-outs stand apart in the source and are kept apart here.

Legend:
human cathepsin L = molecular target: T1, human cathepsin L (Homo sapiens, UniProt P07711); test: Protease selectivity, Ki on protease; format: biochemical; conditions: single experiments N1-N4; Figure 1D; read-out: Individual Ki, Cathepsin L
T1 construct: purchased Bio-Techne

Recombinant human DESC1 = molecular target: T2, Recombinant human DESC1 (Homo sapiens, UniProt Q9UL52); test: Protease selectivity, Ki on recombinant protease; format: biochemical; conditions: single experiments N1-N3; Figure 1D; read-out: Individual Ki, Desc1
T2 construct: made in house
T2 sequence (Q9UL52 1-423): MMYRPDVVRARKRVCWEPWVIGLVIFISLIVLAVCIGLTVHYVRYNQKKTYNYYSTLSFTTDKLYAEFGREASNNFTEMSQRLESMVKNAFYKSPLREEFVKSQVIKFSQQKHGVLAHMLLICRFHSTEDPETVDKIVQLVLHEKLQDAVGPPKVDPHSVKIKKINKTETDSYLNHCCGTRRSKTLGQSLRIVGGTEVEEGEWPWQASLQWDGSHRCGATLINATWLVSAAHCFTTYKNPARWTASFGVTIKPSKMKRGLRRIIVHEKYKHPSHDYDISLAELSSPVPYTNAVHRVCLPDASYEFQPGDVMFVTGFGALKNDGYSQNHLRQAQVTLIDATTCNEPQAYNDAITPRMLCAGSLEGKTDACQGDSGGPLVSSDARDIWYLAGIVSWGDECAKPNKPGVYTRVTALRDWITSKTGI

[1] = Cytotoxicity CC50 in Calu-3 lung epithelial cells; format: cell-based, human; conditions: human, Calu-3 cells; for viability at 24 h, 3000 µM: Log [inhibitor] -2.52; for viability at 24 h, 300 µM: Log [inhibitor] -3.52; for viability at 24 h, 100 µM: Log [inhibitor] -4.00; for viability at 24 h, 30 µM: Log [inhibitor] -4.52; for viability at 24 h, 10 µM: Log [inhibitor] -5.00; for viability at 24 h, 3 µM: Log [inhibitor] -5.52; for viability at 24 h, 0.3 µM: Log [inhibitor] -6.52; for viability at 24 h, 0.03 µM: Log [inhibitor] -7.52; for viability at 24 h, 0.003 µM: Log [inhibitor] -8.52
Calu-3 cells = test: Cytotoxicity CC50 in Calu-3 lung epithelial cells; format: cell-based, human; conditions: single replicates
Recombinant human hepsin = molecular target: T3, Recombinant human hepsin (Homo sapiens, UniProt P05981); test: Protease selectivity, Ki on recombinant protease; format: biochemical; conditions: single experiments N1-N3; Figure 1D; read-out: Individual Ki, Hepsin
T3 construct: made in house

[2] = molecular target: T4, Recombinant human matriptase (Homo sapiens, UniProt Q9Y5Y6); test: Protease selectivity, Ki on recombinant protease; format: biochemical; conditions: single experiments N1-N3; Figure 1D; read-out: Individual Ki, Matriptase
T4 construct: made in house
T4 sequence (Q9Y5Y6 1-855): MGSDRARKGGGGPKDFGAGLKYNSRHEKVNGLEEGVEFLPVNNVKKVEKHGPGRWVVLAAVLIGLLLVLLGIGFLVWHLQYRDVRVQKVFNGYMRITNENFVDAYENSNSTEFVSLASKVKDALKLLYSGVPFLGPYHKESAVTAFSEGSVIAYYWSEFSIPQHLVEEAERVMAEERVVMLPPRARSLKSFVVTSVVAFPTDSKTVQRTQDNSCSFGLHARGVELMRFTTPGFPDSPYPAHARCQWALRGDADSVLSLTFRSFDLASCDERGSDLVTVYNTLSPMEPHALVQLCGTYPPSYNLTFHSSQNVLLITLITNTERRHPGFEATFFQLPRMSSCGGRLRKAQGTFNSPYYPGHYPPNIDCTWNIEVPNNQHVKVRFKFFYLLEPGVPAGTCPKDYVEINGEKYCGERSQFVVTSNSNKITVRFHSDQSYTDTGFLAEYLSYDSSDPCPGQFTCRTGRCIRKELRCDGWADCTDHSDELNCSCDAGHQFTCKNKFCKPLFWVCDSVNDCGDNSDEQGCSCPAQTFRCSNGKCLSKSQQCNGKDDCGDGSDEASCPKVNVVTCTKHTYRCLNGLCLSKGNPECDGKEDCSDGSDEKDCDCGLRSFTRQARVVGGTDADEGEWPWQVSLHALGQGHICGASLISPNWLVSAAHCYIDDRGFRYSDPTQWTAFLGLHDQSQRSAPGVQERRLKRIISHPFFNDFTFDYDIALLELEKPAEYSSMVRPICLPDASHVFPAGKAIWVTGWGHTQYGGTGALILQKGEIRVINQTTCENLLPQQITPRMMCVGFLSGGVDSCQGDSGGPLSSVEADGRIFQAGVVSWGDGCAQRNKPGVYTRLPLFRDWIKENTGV

Recombinant human furin = molecular target: T5, Recombinant human furin (Homo sapiens, UniProt P09958); test: Protease selectivity, Ki on recombinant protease; format: biochemical; conditions: single experiments N1-N3; Figure 1D; read-out: Individual Ki, Furin
T5 construct: purchased Bio-Techne

human thrombin = molecular target: T6, human thrombin (Homo sapiens, UniProt P00734); test: Protease selectivity, Ki on protease; format: biochemical; conditions: single experiments N1-N3; Figure 1D; read-out: Individual Ki, Thrombin
T6 construct: purchased MilliporeSigma

[3] = system: SARS-CoV-2 lineage B strain (VIDO); test: microbe, parasite or virus in culture; format: cell-based
human TMPRSS2 = human TMPRSS2 (Homo sapiens, UniProt O15393); test: cell-based; conditions: for TMPRSS2 activity (%): Figure 1B, single experiments N1-N3; for inhibition at 0.01 µM: Vero C1008, 10 nM compound, 24 h, vs untreated/vehicle TMPRSS2-expressing Vero E6 cells, read-out: inhibition of TMPRSS2 activity (reduction of substrate proteolysis)
[4] = read-out: % of Viability, Average (n=2)
[5] = single replicates, read-out: % of Viability

T5 sequence (P09958 108-794): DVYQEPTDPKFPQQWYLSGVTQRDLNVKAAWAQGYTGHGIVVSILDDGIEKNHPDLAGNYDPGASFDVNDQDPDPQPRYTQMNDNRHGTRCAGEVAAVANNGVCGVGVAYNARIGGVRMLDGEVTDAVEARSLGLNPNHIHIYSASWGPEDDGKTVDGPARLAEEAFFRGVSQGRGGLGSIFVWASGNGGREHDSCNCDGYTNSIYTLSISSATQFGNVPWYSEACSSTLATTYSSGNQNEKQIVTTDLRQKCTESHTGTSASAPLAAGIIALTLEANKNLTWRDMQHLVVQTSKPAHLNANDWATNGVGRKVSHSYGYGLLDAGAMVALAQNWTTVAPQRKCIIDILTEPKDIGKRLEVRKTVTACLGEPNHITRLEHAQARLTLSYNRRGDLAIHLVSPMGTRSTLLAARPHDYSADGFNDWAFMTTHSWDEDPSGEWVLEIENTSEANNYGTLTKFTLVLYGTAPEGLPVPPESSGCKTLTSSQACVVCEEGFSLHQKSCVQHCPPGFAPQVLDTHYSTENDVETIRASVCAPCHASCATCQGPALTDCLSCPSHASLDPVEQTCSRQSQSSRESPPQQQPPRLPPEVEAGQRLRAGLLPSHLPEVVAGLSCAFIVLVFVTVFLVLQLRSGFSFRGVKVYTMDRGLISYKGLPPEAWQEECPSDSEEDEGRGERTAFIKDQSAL
T1 sequence (P07711 114-333): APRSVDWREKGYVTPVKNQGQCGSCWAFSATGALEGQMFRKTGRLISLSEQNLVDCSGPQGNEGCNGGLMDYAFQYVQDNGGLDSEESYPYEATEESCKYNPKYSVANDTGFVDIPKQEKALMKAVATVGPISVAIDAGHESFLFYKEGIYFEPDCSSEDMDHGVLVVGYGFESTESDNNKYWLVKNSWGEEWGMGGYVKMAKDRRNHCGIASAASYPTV
T3 sequence (P05981 whole entry): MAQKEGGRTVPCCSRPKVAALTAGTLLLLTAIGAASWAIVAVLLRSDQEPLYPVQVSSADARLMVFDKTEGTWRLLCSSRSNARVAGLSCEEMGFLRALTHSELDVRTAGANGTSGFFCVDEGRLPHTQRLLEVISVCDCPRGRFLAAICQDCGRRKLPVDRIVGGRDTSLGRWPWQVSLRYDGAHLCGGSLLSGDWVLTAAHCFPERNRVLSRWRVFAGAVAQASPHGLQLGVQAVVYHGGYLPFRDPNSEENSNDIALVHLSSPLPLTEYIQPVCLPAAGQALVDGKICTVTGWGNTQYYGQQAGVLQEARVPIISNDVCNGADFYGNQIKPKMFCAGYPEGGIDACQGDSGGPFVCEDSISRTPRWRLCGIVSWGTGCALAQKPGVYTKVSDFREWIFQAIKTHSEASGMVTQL
human TMPRSS2, sequence (O15393 whole entry): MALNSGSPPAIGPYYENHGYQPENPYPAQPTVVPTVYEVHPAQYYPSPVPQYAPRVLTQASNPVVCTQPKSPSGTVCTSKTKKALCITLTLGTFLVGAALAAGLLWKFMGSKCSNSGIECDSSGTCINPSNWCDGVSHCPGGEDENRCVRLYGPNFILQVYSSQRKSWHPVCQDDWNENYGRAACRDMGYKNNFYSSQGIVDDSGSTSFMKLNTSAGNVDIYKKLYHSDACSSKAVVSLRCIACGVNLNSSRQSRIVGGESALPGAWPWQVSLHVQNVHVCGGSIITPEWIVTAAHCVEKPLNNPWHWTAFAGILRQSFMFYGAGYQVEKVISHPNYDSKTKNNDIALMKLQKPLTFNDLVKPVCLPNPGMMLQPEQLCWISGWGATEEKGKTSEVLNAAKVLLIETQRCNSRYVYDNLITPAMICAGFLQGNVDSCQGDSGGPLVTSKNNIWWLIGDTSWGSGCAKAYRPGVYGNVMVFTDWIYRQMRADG

CC(=O)N[C@@H](CCC(N)=O)C(=O)N[C@@H](Cc1ccccc1)C(=O)N[C@@H](CCCNC(=N)N)C(=O)c1nc2ccccc2s1 [Compound N-00386]
Ki (human cathepsin L): 7.72 µM and 7.58 µM and 7.87 µM
Ki (Recombinant human DESC1): 0.0111 µM and 0.00728 µM and 0.00899 µM

CC(=O)N[C@@H](CCC(N)=O)C(=O)N[C@@H](Cc1ccccc1)C(=O)N[C@@H](CCCNC(=N)N)C(=O)c1nc2ccccc2s1 [Compound N-386]
viability at 24 h, 3000 µM [1, 4]: 46%
viability at 24 h, 3000 µM [1, 5]: 44%
viability at 24 h, 300 µM [1, 4]: 82.5%
viability at 24 h, 300 µM [1, 5]: 79%
viability at 24 h, 100 µM [1, 4]: 87%
viability at 24 h, 100 µM [1, 5]: 86%
viability at 24 h, 30 µM [1, 4]: 87.5%
viability at 24 h, 30 µM [1, 5]: 85%
viability at 24 h, 10 µM [1, 4]: 87%
viability at 24 h, 10 µM [1, 5]: 86%
viability at 24 h, 3 µM [1, 4]: 95%
viability at 24 h, 3 µM [1, 5]: 95%
viability at 24 h, 0.3 µM [1, 4]: 100%
viability at 24 h, 0.3 µM [1, 5]: 98%
viability at 24 h, 0.03 µM [1, 4]: 104%
viability at 24 h, 0.03 µM [1, 5]: 101%
viability at 24 h, 0.003 µM [1, 4]: 102%
viability at 24 h, 0.003 µM [1, 5]: 102%
CC50 at 24 h ([1]; unit not given for CC50, read-out: CC50): 1880 µM
% of Viability (Calu-3 cells; Log [inhibitor] -2.52): 48%
% of Viability (Calu-3 cells; Log [inhibitor] -4.00): 88%
% of Viability (Calu-3 cells; Log [inhibitor] -4.52): 90%
% of Viability (Calu-3 cells; Log [inhibitor] -5.00): 88%
% of Viability (Calu-3 cells; Log [inhibitor] -7.52): 106%

N=C(N)NCCCCC(=O)N[C@@H](CCC(=O)O)C(=O)N[C@@H](Cc1ccccc1)C(=O)N[C@@H](CCCNC(=N)N)C(=O)c1nc2ccccc2s1 [Compound N-00438]
Ki (Recombinant human hepsin): 0.000477 µM and 0.000603 µM and 0.000489 µM
Ki [2]: 0.00121 µM and 0.00102 µM and 0.00109 µM
Ki (Recombinant human furin): > 10 µM
Ki (human cathepsin L): > 10 µM
Ki (Recombinant human DESC1): 0.0343 µM and 0.0276 µM and 0.0298 µM
Ki (human thrombin): > 10 µM

CC(=O)NC(CCC(N)=O)C(=O)NC(CC1CCCCC1)C(=O)NC(CCCNC(=N)N)C(=O)c1nc2ccccc2s1 (stereo not shown) [Compound N-0676]
inhibition at 0.1 µM ([3]; Severe acute respiratory syndrome coronavirus 2, Calu-3, read-out: inhibition of SARS-CoV-2 infection): < 53%
TMPRSS2 activity (%) (human TMPRSS2): 95.6684% and 87.7074% and 100.707%
inhibition at 0.01 µM (human TMPRSS2): 8%

N=C(N)NCCCC(NC(=O)C(Cc1ccccc1)NC(=O)C(CCC(N)=O)NC(=N)N)C(=O)c1nc2ccccc2s1 (stereo not shown) [Compound N-1296]
Nucleocapsid ([3]; Figure 2a; two replicates; DMSO control about 91-94): 31.7311 and 81.7299
dsRNA ([3]; Figure 2a; two replicates; DMSO control about 93-95): 37.1641 and 78.8536
inhibition at 0.1 µM ([3]; Severe acute respiratory syndrome coronavirus 2, Calu-3; read-out: inhibition of SARS-CoV-2 infection): < 44%
TMPRSS2 activity (%) (human TMPRSS2): 93.2686% and 83.3862% and 77.4595%
inhibition at 0.01 µM (human TMPRSS2): 16%
